Values quoted from earlier work, collected in patent publication US20150209399A1, “Methods For Enhacement Of Dehydroepiandrosterone Using Green Coffee Bean Extract” (Applied Food Sciences, Inc., priority 2013, published 2015).

Tests used:
[1] = tested on: human coxsackievirus B4 strain
[2] = tested on: platelet aggregation; details: four of the five test subjects who received DHEA; second week
[3] = 300 mg DHEA per day orally, second week; baseline 316.2
[4] = human, in vivo

Compound	mortality of infected animals treated with DHEA ([1]; 100,000 plaque forming units/animal, about 90% mortality in infected animals) [%]	elevation in the number of antibody forming cells ([1]; within the animal) [%]	rate of platelet aggregation [2]	mean serum DHEA-S level, DHEA group [3] [µg/dL]	half-life [4]
C[C@]12CCC(O)CC1=CC[C@@H]1[C@@H]2CC[C@]2(C)C(=O)CC[C@@H]12 (some centres unmarked) [DHEA, 3-hydroxyandrost-5-en-17-one]	37	80	slower rate of aggregation	1451.9 ± 56.7	
chlorogenic acids					less than 12 hours
